Values after ≈ are worked out from the molar mass of the structure shown. Values joined by “and” are separate entries in the source; they are usually repeats but may differ in a detail not shown here. Equal entries are not always repeated. Where two headings read alike, the source gives them in different places.
Experiment: Thermodynamic solubility
Type: physicochemical
Conditions: 37° C.; for solubility thermodynamic at 24 h: thermodynamic from solid
Description: 4.2. Thermodynamic Solubility
Poor solubility, in particular poor thermodynamic solubility can limit the absorption of compounds from the gastrointestinal tract which in turn may reduce oral bioavailability.
Thermodynamic solubility investigates the solubility of a compound as a saturated solution in equilibrium, by opposition to kinetic solubility, which measures the solubility of a metastable solution where supersaturation may occur and provide over estimation of the actual solubility of the compound. (Klein 2010)
4.2.1. Thermodynamic Solubility—Protocol 1
(§1) In a 8 mL glass vial, 1-2 mg of dry matter of compound are added and stirred with the suitable buffers (Fed State Simulated Intestine Fluid, FeSSIF, or Fasted State Simulated Intestine Fluid, FaSSIF, or Fasted State Simulated Gastric Fluid, FaSSGF, or phosphate buffer pH 7.4) for 24 h at r.t. (for the buffer pH 7.4) or 37° C. (for the GI fluids). The concentration of the mixture is 1 mg/mL.
A volume of 500 μL are sampled, centrifuged for 10 min at 10 000 rpm and filtered. The samples are diluted in duplicates in DMSO (F100 and F10). Then, a final dilution (F100) in 80/20 H2O/MeCN containing the internal standard (warfarin) is used for LCMS-MS analysis.
A standard curve is made starting from a 200,000 ng/mL stock in DMSO, freshly prepared from dry matter. Then, successive concentrations at […], 1,000, 200 and 75 ng/mL in DMSO are prepared by using the Tecan robot.
Two quality control samples are made: one of 10,000 ng/mL and one of 500 ng/mL in DMSO, also starting from the DMSO working stock solution at 200,000 ng/mL.
The standard curve and quality controls are diluted a F100 in 80/20 H2O/MeCN (with internal standard) and analyzed on LC/MS-MS (API4000 or API5500).
(§2) The samples are analyzed on LC-MS with a flow rate of 0.6 mL/min. The mobile phase A is 0.1% formic acid in water and the mobile phase B is 0.1% formic acid in MeCN. The sample is run under positive or negative ion spray on Pursuit C18-5 μm (2.0×20 mm) column, from Agilent.
The peak areas of the standard curve are plotted in a graph and a linear or polynomial of the second order equation is used to calculate the unknown concentrations of the test compound.
4.2.2. Thermodynamic Solubility—Protocol 2
as §1, with “In an” for “In a”, “compound were” for “compound are”, “mixture was” for “mixture is”
A volume of 1000 μL were sampled, centrifuged for 10 min at 10 000 rpm and 500 μL of the supernatant were filtered on captiva plate. The samples were diluted in duplicates in DMSO (F100 and F10). Then, a final dilution (F100) in 80/20 H2O/MeCN containing the internal standard (warfarin) was used for LCMS-MS analysis.
A standard curve was made starting from a 40,000 ng/mL stock in DMSO, freshly prepared from dry matter. Then, successive concentrations at 15,000, 11,000, 6,000, 2,500, 1,000, 375, 150 and 75 ng/mL in DMSO were prepared.
Three quality control samples were made: one of 10,000, 1,500 and 200 ng/mL in DMSO, also starting from the DMSO working stock solution at 40,000 ng/mL.
The standard curve and quality controls were diluted a F100 in 80/20 H2O/MeCN (with internal standard) and analyzed on LC/MS-MS (API4000 or API5500).
as §2, with “were” for “are”, “was” for “is”, “90% acetonitrile and 10% of water.” for “MeCN.”, “Agilent. […]” for “Agilent.”

[1] = Fasted State Simulated Gastric Fluid, 24 h
[2] = Fasted State Simulated Intestine Fluid, 24 h
[3] = Fasted State Simulated Gastric Fluid (FaSSGF), fassgf or other biorelevant, Fasted State Simulated Gastric Fluid, read-out: Tsol FaSSGF
[4] = Fasted State Simulated Intestine Fluid (FaSSIF), fassif, Fasted State Simulated Intestine Fluid, read-out: Tsol FaSSIF
[5] = Fed State Simulated Intestine Fluid (FeSSIF), fessif, Fed State Simulated Intestine Fluid, read-out: Tsol FeSSIF

SMILES	solubility thermodynamic at 24 h [3] [µg/mL]	solubility thermodynamic at 24 h [4] [µg/mL]	further results
CNC(=O)c1cc2nc(CCC(C)(C)O)cn2cc1NC(=O)c1cccc(C(F)(F)F)n1 [Compound 2, 2-(3-hydroxy-3-methyl-butyl)-N-methyl-6-[[6-(trifluoromethyl)pyridine-2-carbonyl]amino]imidazo[1,2-a]pyridine-7-carboxamide]			Tsol FaSSGF [1]: 673 µg/mL and 969 µg/mL; Tsol FaSSIF [2]: 9.08 µg/mL and 9.24 µg/mL; Tsol FeSSIF (Fed State Simulated Intestine Fluid, 24 h): 35.4 µg/mL and 25.8 µg/mL
COc1cc2nc(CCC(C)(C)O)cn2cc1NC(=O)c1cccc(C(F)(F)F)n1 [Compound 3, N-[2-(3-hydroxy-3-methyl-butyl)-7-methoxy-imidazo[1,2-a]pyridin-6-yl]-6-(trifluoromethyl)pyridine-2-carboxamide]	880 (≈ 2080 µM)	31.4 (≈ 74.3 µM)	solubility thermodynamic at 24 h [5]: 360 µg/mL (≈ 852 µM)
COc1cc2nc(CCC(C)(C)O)cn2cc1NC(=O)c1cccn(C)c1=O [Compound 4, N-[2-(3-hydroxy-3-methyl-butyl)-7-methoxy-imidazo[1,2-a]pyridin-6-yl]-1-methyl-2-oxo-pyridine-3-carboxamide]	116 (≈ 302 µM)	125 (≈ 325 µM)	
COc1cc2nc(CCC(C)(C)O)cn2cc1NC(=O)c1cccn(C2CC2)c1=O [Compound 5, 1-cyclopropyl-N-[2-(3-hydroxy-3-methyl-butyl)-7-methoxy-imidazo[1,2-a]pyridin-6-yl]-2-oxo-pyridine-3-carboxamide]	> 1000	798 (≈ 1940 µM)	solubility thermodynamic at 24 h [5]: > 1000 µg/mL
COc1cc2nc(CCC(C)(C)O)cn2cc1NC(=O)c1cccc(C)n1 [Compound 6, N-[2-(3-hydroxy-3-methyl-butyl)-7-methoxy-imidazo[1,2-a]pyridin-6-yl]-6-methyl-pyridine-2-carboxamide]		692 (≈ 1880 µM)	
COc1cc2nc(CCC(C)(C)O)cn2cc1NC(=O)c1cccc(C(F)F)n1 [Compound 7, 6-(difluoromethyl)-N-[2-(3-hydroxy-3-methyl-butyl)-7-methoxy-imidazo[1,2-a]pyridin-6-yl]pyridine-2-carboxamide]		15.2 (≈ 37.6 µM)	
COc1cccc(C(=O)Nc2cn3cc(CCC(C)(C)O)nc3cc2OC)n1 [Compound 8, N-[2-(3-hydroxy-3-methyl-butyl)-7-methoxy-imidazo[1,2-a]pyridin-6-yl]-6-methoxy-pyridine-2-carboxamide]		8.56 (≈ 22.3 µM)	
COc1cc2nc(CCC(C)(C)O)cn2cc1NC(=O)c1cccn(C(F)F)c1=O [Compound 12, 1-(difluoromethyl)-N-[2-(3-hydroxy-3-methyl-butyl)-7-methoxy-imidazo[1,2-a]pyridin-6-yl]-2-oxo-pyridine-3-carboxamide]	> 1000	188 (≈ 447 µM)	
COc1cc2nc(CCC(C)(C)O)cn2cc1NC(=O)c1cccn(CC(F)(F)F)c1=O [Compound 13, N-[2-(3-hydroxy-3-methyl-butyl)-7-methoxy-imidazo[1,2-a]pyridin-6-yl]-2-oxo-1-(2,2,2-trifluoroethyl)pyridine-3-carboxamide]		600 (≈ 1330 µM)	
COc1cc2nc(CCC(C)(C)O)cn2cc1NC(=O)c1cccn(C2CCC2)c1=O [Compound 18, 1-cyclobutyl-N-[2-(3-hydroxy-3-methyl-butyl)-7-methoxy-imidazo[1,2-a]pyridin-6-yl]-2-oxo-pyridine-3-carboxamide]		253 (≈ 596 µM)	
COc1cc2nc(CCC(C)(C)O)cn2cc1NC(=O)c1cccc(C(C)(F)F)n1 [Compound 20, 6-(1,1-difluoroethyl)-N-[2-(3-hydroxy-3-methyl-butyl)-7-methoxy-imidazo[1,2-a]pyridin-6-yl]pyridine-2-carboxamide]		2.63 (≈ 6.29 µM)	
CCn1cccc(C(=O)Nc2cn3cc(CCC(C)(C)O)nc3cc2OC)c1=O [Compound 23, 1-ethyl-N-[2-(3-hydroxy-3-methyl-butyl)-7-methoxy-imidazo[1,2-a]pyridin-6-yl]-2-oxo-pyridine-3-carboxamide]	> 1000	459 (≈ 1150 µM)	
COc1cc2nc(CCS(C)(=O)=O)cn2cc1NC(=O)c1cccc(C(F)(F)F)n1 [Compound 24, N-[7-methoxy-2-(2-methylsulfonylethyl)imidazo[1,2-a]pyridin-6-yl]-6-(trifluoromethyl)pyridine-2-carboxamide]	> 1000	2.44 (≈ 5.52 µM)	
COc1cc2nc(CCS(C)(=O)=O)cn2cc1NC(=O)c1cccn(C2CC2)c1=O [Compound 25, 1-cyclopropyl-N-[7-methoxy-2-(2-methylsulfonylethyl)imidazo[1,2-a]pyridin-6-yl]-2-oxo-pyridine-3-carboxamide]		41.5 (≈ 96.4 µM)	
CC(C)(O)CCc1cn2cc(NC(=O)c3cccc(C(F)(F)F)n3)c(C(N)=O)cc2n1 [Compound 31, 2-(3-hydroxy-3-methyl-butyl)-6-[[6-(trifluoromethyl)pyridine-2-carbonyl]amino]imidazo[1,2-a]pyridine-7-carboxamide]	> 1000	2.97 (≈ 6.82 µM)	solubility thermodynamic at 24 h [5]: 4.4 µg/mL (≈ 10.1 µM)
COCCc1cn2cc(NC(=O)c3cccc(C(F)(F)F)n3)c(OC)cc2n1 [Compound 35, N-[7-methoxy-2-(2-methoxyethyl)imidazo[1,2-a]pyridin-6-yl]-6-(trifluoromethyl)pyridine-2-carboxamide]		< 30	
CCOc1c(NC(=O)c2cccn(C3CC3)c2=O)cn2cc(CCC(C)(C)O)nc2c1F [Compound 37, 1-cyclopropyl-N-[7-ethoxy-8-fluoro-2-(3-hydroxy-3-methyl-butyl)imidazo[1,2-a]pyridin-6-yl]-2-oxo-pyridine-3-carboxamide]	> 1000	70.5 (≈ 159 µM)	
CCOc1c(NC(=O)c2cccn(C)c2=O)cn2cc(CCC(C)(C)O)nc2c1F [Compound 38, N-[7-ethoxy-8-fluoro-2-(3-hydroxy-3-methyl-butyl)imidazo[1,2-a]pyridin-6-yl]-1-methyl-2-oxo-pyridine-3-carboxamide]	> 1000	96.8 (≈ 232 µM)	
CCOc1c(NC(=O)c2cccn(C3CC3)c2=O)cn2cc(CCS(C)(=O)=O)nc2c1F [Compound 39, 1-cyclopropyl-N-[7-ethoxy-8-fluoro-2-(2-methylsulfonylethyl)imidazo[1,2-a]pyridin-6-yl]-2-oxo-pyridine-3-carboxamide]	> 1000		Tsol FaSSGF [1]: >1000, μg/mL; Tsol FaSSIF [2]: 7.3 µg/mL and 7.50 µg/mL; solubility thermodynamic at 24 h [5]: 20.9 µg/mL (≈ 45.2 µM)
COc1c(NC(=O)c2cccn(C3CC3)c2=O)cn2cc(CCC(C)(C)O)nc2c1F [Compound 42, 1-cyclopropyl-N-[8-fluoro-2-(3-hydroxy-3-methyl-butyl)-7-methoxy-imidazo[1,2-a]pyridin-6-yl]-2-oxo-pyridine-3-carboxamide]	> 1000	181 (≈ 422 µM)	solubility thermodynamic at 24 h [5]: 612 µg/mL (≈ 1430 µM)

From US20220194938A1, “NOVEL COMPOUNDS AND PHARMACEUTICAL COMPOSITIONS THEREOF FOR THE TREATMENT OF INFLAMMATORY DISORDERS” (GALAPAGOS NV, priority 2019, published 2022)
